“Also recorded” adds a separate entry of the source.
Legend:
[1] = test system: Human corneal epithelial cells; test: NC on IL-6 release in HCECs; assay type: cell-based; details: 50 μM NC 18 hours, 6-8 hours
Description: FIG. 30. NC on IL-6 Release in HCECs. Human corneal epithelial cells were plated at a uniform density of 0.2×10^6 cells/mL in 24 well plates. These cells were allowed to adhere for 6-8 hours. They were then treated 18 hours with 50tM of metabolite NC before being stimulated with 1 tg/mL of PA-Flagellin or 50 tg/mL Poly I:C. Supernatant was collected between 6-8 hours after addition of TLR agonist and centrifuged at 1250 rpms for 5 minutes to remove any debris. IL-6 in the supernatant was then quantified using a sandwich ELISA for human IL-6 with a standard of known IL-6 concentration.
Human corneal epithelial cells (HCECs) are a cell type used for models of ocular inflammation. To determine the specificity of HCEC TLR signaling, HCECs were stimulated with various TLR agonists. In this experimental model, HCECs only release IL-6 in response to TLR3 and TLR5 agonists (Poly I:C and Fla, respectively) in vitro (FIG. 29). Therefore, only Poly I:C and Fla were used for HCEC stimulation in subsequent experiments.
To determine if NC can mitigate TLR-related inflammation, HCECs were plated at a uniform density, incubated with 50 μM metabolite NC for 18 hours, and stimulated with flagellin or Poly I:C. After 6-8 hours, supernatant was collected and IL-6 was quantified. […] FIG. 30.

[2] = test system: human corneal epithelial cells (HCECs); test: JE on TLR5 agonist (flagellin)-induced IL-6 in HCECs; assay type: cell-based; details: JE 50 μM overnight, flagellin 6 or 24 hours, ELISA
Description: FIG. 11. Probiotic bacteria metabolite JE inhibits TLR5 agonist-induced IL-6 in HCECs. HCECs were pretreated with 50 µM JE overnight and then stimulated with 0.1 μg/ml flagellin for the indicated time. The effect of TLR5 agonist (flagellin) on IL-6 secretion were measured in cell culture supernatants by ELISA. *, P<0.05.
To test if JE could be used as a therapeutic agent, we tested its effects on a dry eye disease model. Dry eye disease is characterized by inflammation in ocular surface. First, we tested if JE can inhibit production of pro-inflammatory cytokine IL-6 by corneal epithelial cells stimulated by TLR5 agonist flagellin. Thus, SV 40 immortalized human corneal epithelial cells (HCECs) were with JE at 50 μM overnight and they are subsequently exposed to TLR5 agonists (flagellin isolated from Pseudomonas aeruginosa) for 6 or 24 hours. The cell culture supernatants were collected and used for ELISA to determine the concentrations of IL-6. […] Probiotic bacteria-derived metabolite (JE) suppressed the TLR5 agonist-induced IL-6 production (FIG. 11).

[3] = test system: NLRP3 inflammasome; test: JE on IL-1β production and caspase-1 activation by BMDMs upon NLRP3 activation; assay type: cell-based, mouse; details: for IL-1β production upon NLRP3 activation with ATP: 5 mM ATP
Description: (§1) FIG. 19. The Effect of JE on IL-1β Production by BMDMs Upon NLRP3 Activation. Macrophages were pretreated with the metabolite JE at a concentration of 50 μM overnight at 37° C., 5% CO2. The following day, macrophages were primed with LPS at 500 ng/ml for 4 hours and then activated by ATP for 1 hour at 37° C., 5% CO2. Another approach is to prime the cells with 10 ng/ml LPS for 4 hours, then pretreat with JE overnight. The following day, macrophages were activated with 5 mM ATP for an hour at 37° C., 5% CO2. Supernatants were collected, and […] was measured using ELISA. Data are presented as mean±SEM (n=6). **p<0.01. One of three experiments is shown.
as §1, with “20.” for “19.”
FIG. 21. The Impact of JE on Caspase-1 Activation After Priming the Cells with LPS. BMDMs were cultured and seeded as described before. Macrophages were first primed with LPS for 4 hours at 37° C. with 5% CO2. After that, they were treated with the metabolite JE for 1 (LPS1ATP), 2 (LPS2ATP), and 3 (LPS3ATP) hours. Then, the cells were exposed to media containing 5 mM ATP for 1 hour at 37° C. with 5% CO2. Finally, the supernatants were collected and the level of IL-1β was measured using ELISA. Data are presented as mean±SEM (n=6). *p<0.05; ***p<0.001. One of two experiments is shown.
Next, we explored how JE inhibits caspase-1 activation as well as IL-1β production. As stated above, NLRP3 activation adopts a two-step dogma: priming with LPS, followed by activation by ATP, nigericin, or MSU crystals. […] To achieve that, JE was used to pretreat BMDMs overnight at 37° C., 5% CO2; the next day, macrophages were primed with LPS for 4 hours, then stimulated with ATP for an hour. I collected the supernatant and measured IL-1β by ELISA.
In an attempt to determine whether JE inhibits the priming or the activation step, BMDMs were stimulated with LPS, then the metabolite JE was used to treat the cells overnight at 37° C., 5% CO2. The following day, macrophages were stimulated with ATP for an hour, then, supernatant was collected to measure IL-1β by ELISA. PBS was used as a control to JE in this experiment. In both conditions, I did a western blot on caspase-1 to elucidate whether JE inhibits caspase-1 activation or not.
It was also evident by the absence of active caspase-1 in the supernatant on western blot analysis (data not shown). To determine whether JE inhibits the activation signal, instead of pretreating the macrophages with JE overnight. BMDMs were treated with the metabolite JE for 1 hour, 2 hours, and 3 hours after priming with LPS for 4 hours; then 5 mM of ATP was.

Structure (SMILES)	release of IL-6 in response to Poly I:C ([1]; Poly I:C)	release of IL-6 in response to Fla ([1]; flagellin)	TLR5 agonist-induced IL-6 production [2]	IL-β upon activation of NLRP3 inflammasome ([3]; JE 50 μM pretreatment overnight, LPS priming 4 hours, ATP 1 hour)	IL-1β production upon NLRP3 activation with ATP ([3]; JE for 1 hour after priming with LPS 4 hours)	IL-1β production upon NLRP3 activation with ATP ([3]; JE for 2 hours after priming with LPS 4 hours)	IL-1β production upon NLRP3 activation with ATP ([3]; JE for 3 hours after priming with LPS 4 hours)	active caspase-1 in the supernatant (western blot) ([3]; JE pretreatment, LPS priming, ATP)
CCCCCCCCCCCCCCCC(=O)N[C@@H](C(=O)O)[C@H](C)O [NC, N-Palmitoyl-D-Threonine]	does not significantly reduce; also recorded: modestly reduced	does not significantly reduce	–	–	–	–	–	–
CC(=O)O[C@@H]1CC[C@H]2[C@H]3CC[C@H]4CC(F)(F)CC[C@]4(C)[C@H]3CC[C@]12C [JE, 3,3-Difluoro-5-alpha-androstan-17-beta-yl acetate]	–	–	suppressed	completely abolished	did not have the same effect	did not have the same effect	significantly decrease	absence

Source: US20250000874A1, “BACTERIAL METABOLITES AND THEIR USE IN REDUCING INFLAMMATION” (LOYOLA UNIVERSITY OF CHICAGO, priority 2023, published 2025)
